Reference: patent publication US8633167B2, “Method for the protection of trees” (Syngenta Crop Protection LLC, priority 2006, dated 2014)

Tested on: Ips engravers beetles
Experiment: Bolt study (Example 1): Ips attack and gallery construction on loblolly pine bolts cut after trunk injection
Assay type: in vivo
Details: for reduction of length of egg galleries compared to check trees / reduction of total number of egg galleries compared to check trees: May
Text: The intent of the study was to evaluate the efficacy of systemic injections of emamectin benzoate in reducing success of pine bark beetle attacks on loblolly pine and determine the duration of treatment efficacy. As SPB populations were extremely low in Texas in 2004, Ips engravers beetles were used as indicator species.
Two 20-year-old, recently thinned loblolly pine plantations were selected on land owned by Temple-Inland Forest Products Corporation about 5 km south of Wells (Angelina County), Tex. Trees in one plantation were injected for use in a bolt study (Example 1). Trees in a 0.2 ha section of the second plantation were injected as part of a single-tree protection study (Example 2). A staging area also was set up in the second plantation where bolts from the first plantation were exposed to bark beetles and wood borers.
Seventy-five loblolly pine trees, Pinus taeda L., 15-20 cm diameter at breast height (DBH), were selected in March 2004. Each treatment was injected into four cardinal points about 0.3 m above the ground on each of 15 trees in April (16th-23rd) using the new Arborjet Tree IV™ microinfusion system (Arborjet, Inc. Woburn, Mass.). The treatments included: • 1) Emamectin benzoate (Denim®, 1.92% ai, Syngenta Crop Science)—Denim® was mixed 1:1 with methanol and applied at 18.6 ml solution per inch of tree diameter at breast height (DBH) (=0.2 g active per inch DBH). • 2) Check (untreated)
After 1 (May 24), 3 (July 19) and 5 (September) months post-injection, 5 trees of each treatment were felled and two 1.5 m long bolts were removed from the 3 m and 8 m heights of the bole. The bolts were transported to a nearby plantation that was recently thinned and contained fresh slash material. Each bolt was placed about 1 m apart on discarded, dry pine bolts to maximize surface area available for colonization as well as to discourage predation by ground and litter-inhabiting organisms. To facilitate timely bark beetle colonization, packets of bark beetle pheromones (racemic ipsdienol + lanerione combination, ipsenol or cis-verbenol; Phero Tech, Inc., Delta, BC, Canada) were attached separately to three 1 m stakes evenly spaced in the study area. Racemic ipsdienol and cis-verbenol were used with the second and third series of bolts deployed in July and September, respectively. The packets were removed after 2 weeks when signs of attacks (boring dust) were observed on most test bolts, signaling that naturally-produced pheromones were present.
A clear panel of acetate (10 cm wide by 25 cm long) was attached to the center of each bolt after deployment of bolts to monitor arrival of bark beetles. The top surface of each panel was coated entirely with Stikem Special® trapping compound (Michel and Pelton, Emeryville, Calif.). The traps were left in place for two weeks.
Each series of bolts were retrieved about 3 weeks after deployment, after observing many cerambycid egg niches on the bark surface of most bolts. There was concern that if cerambycid larvae were allowed to develop too long, their feeding activity would obscure or obliterate the Ips galleries. Thus, each series of bolts were retrieved and stored temporarily in a TFS seedling cooler (˜45° F.) to slow cerambycid development until the bolts could be evaluated.
In the laboratory, two 10×50 cm strips (total=1000 cm^2) of bark were removed from each bolt. […]

[1] = 1 Month Post-Injection (May), bolt height 3 m
[2] = 1 Month Post-Injection (May), bolt height 8 m
[3] = 3 Months Post-Injection (July), bolt height 3 m
[4] = 3 Months Post-Injection (July), bolt height 8 m
[5] = 5 Months Post-Injection (September), bolt height 3 m
[6] = 5 Months Post-Injection (September), bolt height 8 m

Substance: 4″-deoxy-4″-N-methylamino avermectin B1a/B1b [Emamectin]
- Length of Egg Galleries Total Length [1]: 30.7 a cm
- Length of Egg Galleries With Brood % Total [1]: 49.5%
- Length of Egg Galleries With Brood cm [1]: 15.2 a cm
- Length of Egg Galleries Without Brood % Total [1]: 50.5%
- Length of Egg Galleries Without Brood cm [1]: 15.5 a cm
- Mean # of Ips caught/Trap [1]: 3.8 a
- Mean # of Nuptial Chambers Without Egg Galleries No. [1]: 14.6 c
- Mean # of Nuptial Chambers Without Egg Galleries Total [1]: 78.5
- Mean # of Nuptial Chambers with Egg Galleries No. [1]: 4.0 a
- Mean # of Nuptial Chambers with Egg Galleries Total [1]: 21.5
- Mean Total # of Nuptial Chambers [1]: 18.6 a
- Number of Egg Galleries Total Galleries [1]: 12.4 a
- Number of Egg Galleries With Brood % Total [1]: 19.4%
- Number of Egg Galleries With Brood No. [1]: 2.4 a
- Number of Egg Galleries Without Brood % Total [1]: 80.6%
- Number of Egg Galleries Without Brood No. [1]: 10.0 a
- Length of Egg Galleries Total Length [2]: 13.5 a cm
- Length of Egg Galleries With Brood % Total [2]: 8.9%
- Length of Egg Galleries With Brood cm [2]: 1.2 a cm
- Length of Egg Galleries Without Brood % Total [2]: 91.1%
- Length of Egg Galleries Without Brood cm [2]: 12.3 a cm
- Mean # of Ips caught/Trap [2]: 4.8 a
- Mean # of Nuptial Chambers Without Egg Galleries No. [2]: 9.0 c
- Mean # of Nuptial Chambers Without Egg Galleries Total [2]: 69.2
- Mean # of Nuptial Chambers with Egg Galleries No. [2]: 4.0 a
- Mean # of Nuptial Chambers with Egg Galleries Total [2]: 30.8
- Mean Total # of Nuptial Chambers [2]: 13.0 ab
- Number of Egg Galleries Total Galleries [2]: 4.2 a
- Number of Egg Galleries With Brood % Total [2]: 4.8%
- Number of Egg Galleries With Brood No. [2]: 0.2 a
- Number of Egg Galleries Without Brood % Total [2]: 95.2%
- Number of Egg Galleries Without Brood No. [2]: 4.0 a
- Length of Egg Galleries Total Length [3]: 0.0 a cm
- Length of Egg Galleries With Brood cm [3]: 0.0 a cm
- Length of Egg Galleries Without Brood cm [3]: 0.0 a cm
- Mean # of Ips caught/Trap [3]: 1.8 a
- Mean # of Nuptial Chambers Without Egg Galleries No. [3]: 11.0 b
- Mean # of Nuptial Chambers Without Egg Galleries Total [3]: 100.0
- Mean # of Nuptial Chambers with Egg Galleries No. [3]: 0.0 a
- Mean # of Nuptial Chambers with Egg Galleries Total [3]: 0.0
- Mean Total # of Nuptial Chambers [3]: 11.0 ab
- Number of Egg Galleries Total Galleries [3]: 0.0 a
- Number of Egg Galleries With Brood No. [3]: 0.0 a
- Number of Egg Galleries Without Brood No. [3]: 0.0 a
- Length of Egg Galleries Total Length [4]: 0.0 a cm
- Length of Egg Galleries With Brood cm [4]: 0.0 a cm
- Length of Egg Galleries Without Brood cm [4]: 0.0 a cm
- Mean # of Ips caught/Trap [4]: 3.4 a
- Mean # of Nuptial Chambers Without Egg Galleries No. [4]: 8.4 c
- Mean # of Nuptial Chambers Without Egg Galleries Total [4]: 100.0
- Mean # of Nuptial Chambers with Egg Galleries No. [4]: 0.0 a
- Mean # of Nuptial Chambers with Egg Galleries Total [4]: 0.0
- Mean Total # of Nuptial Chambers [4]: 8.4 b
- Number of Egg Galleries Total Galleries [4]: 0.0 a
- Number of Egg Galleries With Brood No. [4]: 0.0 a
- Number of Egg Galleries Without Brood No. [4]: 0.0 a
- Length of Egg Galleries Total Length [5]: 0.0 a cm
- Length of Egg Galleries With Brood cm [5]: 0.0 a cm
- Length of Egg Galleries Without Brood cm [5]: 0.0 a cm
- Mean # of Ips caught/Trap [5]: 1.2 a
- Mean # of Nuptial Chambers Without Egg Galleries No. [5]: 3.8 b
- Mean # of Nuptial Chambers Without Egg Galleries Total [5]: 100.0
- Mean # of Nuptial Chambers with Egg Galleries No. [5]: 0.0 a
- Mean # of Nuptial Chambers with Egg Galleries Total [5]: 0.0
- Mean Total # of Nuptial Chambers [5]: 3.8 a
- Number of Egg Galleries Total Galleries [5]: 0.0 a
- Number of Egg Galleries With Brood No. [5]: 0.0 a
- Number of Egg Galleries Without Brood No. [5]: 0.0 a
- Length of Egg Galleries Total Length [6]: 0.0 a cm
- Length of Egg Galleries With Brood cm [6]: 0.0 a cm
- Length of Egg Galleries Without Brood cm [6]: 0.0 a cm
- Mean # of Ips caught/Trap [6]: 0.4 a
- Mean # of Nuptial Chambers Without Egg Galleries No. [6]: 4.4 b
- Mean # of Nuptial Chambers Without Egg Galleries Total [6]: 100.0
- Mean # of Nuptial Chambers with Egg Galleries No. [6]: 0.0 a
- Mean # of Nuptial Chambers with Egg Galleries Total [6]: 0.0
- Mean Total # of Nuptial Chambers [6]: 4.4 a
- Number of Egg Galleries Total Galleries [6]: 0.0 a
- Number of Egg Galleries With Brood No. [6]: 0.0 a
- Number of Egg Galleries Without Brood No. [6]: 0.0 a
- construction of egg galleries (July and September, all bolts): completely prevented
- attacks unsuccessful (July and September, both heights): 100%
- reduction of length of egg galleries compared to check trees (3 m): 94%
- reduction of total number of egg galleries compared to check trees (3 m): 81%
- reduction of length of egg galleries compared to check trees (8 m): 99%
- reduction of total number of egg galleries compared to check trees (8 m): 96%
- attacks unsuccessful (bolts evaluated in May, 3 m height): 79%
- attacks unsuccessful (bolts evaluated in May, 8 m height): 69%
- preventing successful attacks by Ips bark beetles and cerambycids (both examples, one, three and five months after injection): highly effective
